Data reported in patent publication US6337417B1, “N-phenyltetrahydrophthalamic acid derivatives, methods of producing same, and herbicides containing same as effective components” (Central Glass Co., Ltd., priority 1994, dated 2002).

How the values were obtained:
Assay type in all cases: in vivo
Design in all cases: key: 5: completely killed; 4: seriously injured; 3: considerably injured; 2: somewhat injured; 1: slightly injured; 0: not injured (normally grown)
[1] = tested on: garden radish; experiment: Experiment 5 foliage treatment: garden radish; settings: foliage spray of wettable powder suspension, evaluated 4 weeks after treatment
How it was run: (§1)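 Compounds sprayed as wettable powder suspension onto pot-grown plants at the two- to three-leaf stage. Plants kept in a glasshouse and herbicidal effect scored 4 weeks after treatment.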

[2] = tested on: tamagayatsuri (small-flowered umbrellaplant, Cyperus difformis); experiment: Experiment 4 flooded soil treatment: tamagayatsuri; settings: 4 weeks after treatment
From the text: (§2) Paddy soil (clay loam) was put into a pot so as to have a surface area of 1/15500 ares. Uniformly mixed seeds of several kinds of weeds, viz., nobie (barnyardgrass, Echinochloa spp.), broad-leaved weeds, hotarui (bulrush, Scirpus juncoides) and tamagayatsuri (small-flowered umbrellaplant, Cyperus difformis), were sown in the surface layer of the soil in each pot, and then paddy rice seedlings at the two- or three-leaved stage were transplanted into each pot to a depth of 2 cm, and water was fed into each pot so as to provide a 3 cm deep water layer on the soil surface. After 3 days, in other words at the initial stage of germination of nobie (barnyardgrass, Echinochloa spp.), a predetermined amount of a selected compound obtained in a manner analogous to Example 11 in the form of diluted aqueous solution was dropped into the water layer in each pot. After that, the pots were kept in a glass chamber to allow the paddy rice and the weeds to grow, and after the lapse of 4 weeks from the treatment with the selected compounds, the herbicidal effects and the degree of injury to the paddy rice were evaluated. The evaluation of the herbicidal effects was similarly conducted as to that of Experiment 1.

[3] = tested on: broad-leaved weeds; experiment: Experiment 4 flooded soil treatment: broad-leaved weeds; settings: 4 weeks after treatment
From the text: as §2

[4] = tested on: rice; experiment: Experiment 5 foliage treatment: rice; settings: foliage spray of wettable powder suspension, evaluated 4 weeks after treatment
How it was run: as §1

[5] = tested on: mehishiba (henry crabgrass, Digitaria cliaris); experiment: Experiment 5 foliage treatment: mehishiba; settings: foliage spray of wettable powder suspension, evaluated 4 weeks after treatment
How it was run: as §1

[6] = tested on: cockspur (Panicum crus-galli); experiment: Experiment 5 foliage treatment: cockspur; settings: foliage spray of wettable powder suspension, evaluated 4 weeks after treatment
How it was run: as §1

[7] = tested on: hotarui (bulrush, Scirpus juncoides); experiment: Experiment 4 flooded soil treatment: hotarui; settings: 4 weeks after treatment
From the text: as §2

[8] = tested on: ooinutade (pale smartweed, Persicaria lapathifolia); experiment: Experiment 6 foliage treatment: ooinutade; settings: foliage spray of wettable powder suspension, evaluated 4 weeks after treatment
Experimental: (§3) Upon seedling stage (two- or three-leaved stage) of ichibi (velvetleaf, Abutilon theophrasti), onamomi (heartleaf cocklebur, Xanthium strumarium) (4 L stage), noasagao (blue morningglory, Ipomoea indica) and ooinutade (pale smartweed, Persicaria lapathifolia) which were grown on a cultivated soil put in pots of 1/8850 ares, a selected compound obtained in a manner analogous to Example 11, in suspended wettable powder, was sprayed to each plant. After that, the pots were kept in a glass chamber to allow each plant to grow, and after the lapse of 4 weeks from the treatment with the selected compounds the herbicidal effects were evaluated. The evaluation of the herbicidal effects was similarly conducted as that of Experiment 1.

[9] = tested on: noasagao (blue morningglory, Ipomoea indica); experiment: Experiment 6 foliage treatment: noasagao; settings: foliage spray of wettable powder suspension, evaluated 4 weeks after treatment
Experimental: as §3

[10] = tested on: paddy rice; experiment: Experiment 4 flooded soil treatment: injury to paddy rice; settings: 4 weeks after treatment
From the text: as §2

[11] = tested on: ichibi (velvetleaf, Abutilon theophrasti); experiment: Experiment 6 foliage treatment: ichibi; settings: foliage spray of wettable powder suspension, evaluated 4 weeks after treatment
Experimental: as §3

[12] = tested on: nobie (barnyardgrass, Echinochloa spp.); experiment: Experiment 4 flooded soil treatment: nobie; settings: 4 weeks after treatment
From the text: as §2

[13] = tested on: onamomi (heartleaf cocklebur, Xanthium strumarium); experiment: Experiment 6 foliage treatment: onamomi; settings: foliage spray of wettable powder suspension, evaluated 4 weeks after treatment
Experimental: as §3

[14] = tested on: aobiyu (slender amaranth, Amaranthus viridis); experiment: Experiment 5 foliage treatment: aobiyu; settings: foliage spray of wettable powder suspension, evaluated 4 weeks after treatment
How it was run: as §1

C#CC(C)Oc1cc(N(C(=O)C2=C(C(=O)OCCOCC)CCCC2)C(=O)c2cccnc2)c(F)cc1Cl (stereo not shown) [compound 60]
Herbicidal Effect garden radish ([1]; 40 g/10a): 5 | Herbicidal Effect garden radish ([1]; 80 g/10a): 5 | Herbicidal Effect tamagayatsuri ([2]; 3.13 g/10a): 5 | Herbicidal Effect tamagayatsuri ([2]; 6.25 g/10a): 5 | Herbicidal Effect broad-leaved weed ([3]; 3.13 g/10a): 5 | Herbicidal Effect broad-leaved weed ([3]; 6.25 g/10a): 5 | Herbicidal Effect rice ([4]; 40 g/10a): 2 | Herbicidal Effect rice ([4]; 80 g/10a): 4 | Herbicidal Effect mehishiba ([5]; 40 g/10a): 4 | Herbicidal Effect mehishiba ([5]; 80 g/10a): 5 | Herbicidal Effect cockspur ([6]; 40 g/10a): 1 | Herbicidal Effect cockspur ([6]; 80 g/10a): 1 | Herbicidal Effect hotarui ([7]; 3.13 g/10a): 4.5 | Herbicidal Effect hotarui ([7]; 6.25 g/10a): 4.5 | Herbicidal Effect ooinutade ([8]; 4 g/10a): 5 | Herbicidal Effect ooinutade ([8]; 8 g/10a): 5 | Herbicidal Effect noasagao ([9]; 4 g/10a): 5 | Herbicidal Effect noasagao ([9]; 8 g/10a): 5 | Injury of Paddy ([10]; 3.13 g/10a): 0.5 | Injury of Paddy ([10]; 6.25 g/10a): 0.5 | Herbicidal Effect ichibi ([11]; 4 g/10a): 5 | Herbicidal Effect ichibi ([11]; 8 g/10a): 5 | Herbicidal Effect nobie ([12]; 3.13 g/10a): 5 | Herbicidal Effect nobie ([12]; 6.25 g/10a): 5 | Herbicidal Effect onamomi ([13]; 4 g/10a): 5 | Herbicidal Effect onamomi ([13]; 8 g/10a): 5 | Herbicidal Effect aobiyu ([14]; 40 g/10a): 5 | Herbicidal Effect aobiyu ([14]; 80 g/10a): 5

COC(=O)C1=C(C(=O)N(C(=O)c2cccnc2)c2cc(C(=O)OC)c(Cl)cc2F)CCCC1 [compound 64]
Herbicidal Effect garden radish ([1]; 40 g/10a): 5 | Herbicidal Effect garden radish ([1]; 80 g/10a): 5 | Herbicidal Effect tamagayatsuri ([2]; 3.13 g/10a): 4 | Herbicidal Effect tamagayatsuri ([2]; 6.25 g/10a): 4 | Herbicidal Effect broad-leaved weed ([3]; 3.13 g/10a): 5 | Herbicidal Effect broad-leaved weed ([3]; 6.25 g/10a): 5 | Herbicidal Effect rice ([4]; 40 g/10a): 1 | Herbicidal Effect rice ([4]; 80 g/10a): 1 | Herbicidal Effect mehishiba ([5]; 40 g/10a): 1 | Herbicidal Effect mehishiba ([5]; 80 g/10a): 2 | Herbicidal Effect cockspur ([6]; 40 g/10a): 1 | Herbicidal Effect cockspur ([6]; 80 g/10a): 1 | Herbicidal Effect hotarui ([7]; 3.13 g/10a): 4 | Herbicidal Effect hotarui ([7]; 6.25 g/10a): 4 | Herbicidal Effect ooinutade ([8]; 4 g/10a): 5 | Herbicidal Effect ooinutade ([8]; 8 g/10a): 5 | Herbicidal Effect noasagao ([9]; 4 g/10a): 4 | Herbicidal Effect noasagao ([9]; 8 g/10a): 5 | Injury of Paddy ([10]; 3.13 g/10a): 0 | Injury of Paddy ([10]; 6.25 g/10a): 0.5 | Herbicidal Effect ichibi ([11]; 4 g/10a): 5 | Herbicidal Effect ichibi ([11]; 8 g/10a): 5 | Herbicidal Effect nobie ([12]; 3.13 g/10a): 5 | Herbicidal Effect nobie ([12]; 6.25 g/10a): 5 | Herbicidal Effect onamomi ([13]; 4 g/10a): 4 | Herbicidal Effect onamomi ([13]; 8 g/10a): 5 | Herbicidal Effect aobiyu ([14]; 40 g/10a): 5 | Herbicidal Effect aobiyu ([14]; 80 g/10a): 5

C#CC(C)Oc1cc(N(C(=O)C2=C(C(=O)OC)CCCC2)C(=O)c2cncc(C(=O)OC)c2)c(F)cc1Cl (stereo not shown) [compound 67]
Herbicidal Effect garden radish ([1]; 40 g/10a): 5 | Herbicidal Effect garden radish ([1]; 80 g/10a): 5 | Herbicidal Effect tamagayatsuri ([2]; 3.13 g/10a): 5 | Herbicidal Effect tamagayatsuri ([2]; 6.25 g/10a): 5 | Herbicidal Effect broad-leaved weed ([3]; 3.13 g/10a): 5 | Herbicidal Effect broad-leaved weed ([3]; 6.25 g/10a): 5 | Herbicidal Effect rice ([4]; 40 g/10a): 1 | Herbicidal Effect rice ([4]; 80 g/10a): 1 | Herbicidal Effect mehishiba ([5]; 40 g/10a): 1 | Herbicidal Effect mehishiba ([5]; 80 g/10a): 1 | Herbicidal Effect cockspur ([6]; 40 g/10a): 1 | Herbicidal Effect cockspur ([6]; 80 g/10a): 1 | Herbicidal Effect hotarui ([7]; 3.13 g/10a): 4 | Herbicidal Effect hotarui ([7]; 6.25 g/10a): 5 | Herbicidal Effect ooinutade ([8]; 4 g/10a): 5 | Herbicidal Effect ooinutade ([8]; 8 g/10a): 5 | Herbicidal Effect noasagao ([9]; 4 g/10a): 5 | Herbicidal Effect noasagao ([9]; 8 g/10a): 5 | Injury of Paddy ([10]; 3.13 g/10a): 0.5 | Injury of Paddy ([10]; 6.25 g/10a): 0.5 | Herbicidal Effect ichibi ([11]; 4 g/10a): 5 | Herbicidal Effect ichibi ([11]; 8 g/10a): 5 | Herbicidal Effect nobie ([12]; 3.13 g/10a): 5 | Herbicidal Effect nobie ([12]; 6.25 g/10a): 5 | Herbicidal Effect onamomi ([13]; 4 g/10a): 4 | Herbicidal Effect onamomi ([13]; 8 g/10a): 5 | Herbicidal Effect aobiyu ([14]; 40 g/10a): 5 | Herbicidal Effect aobiyu ([14]; 80 g/10a): 5

N-[4-chloro-2-fluoro-5-(1-methylpropargyloxy)phenyl]-N-nicotinyl-3,4,5,6-tetrahydrophthalamic acid methyl ester [compound 57]
Herbicidal Effect garden radish ([1]; 40 g/10a): 5 | Herbicidal Effect garden radish ([1]; 80 g/10a): 5 | Herbicidal Effect tamagayatsuri ([2]; 3.13 g/10a): 5 | Herbicidal Effect tamagayatsuri ([2]; 6.25 g/10a): 5 | Herbicidal Effect broad-leaved weed ([3]; 3.13 g/10a): 5 | Herbicidal Effect broad-leaved weed ([3]; 6.25 g/10a): 5 | Herbicidal Effect rice ([4]; 40 g/10a): 1 | Herbicidal Effect rice ([4]; 80 g/10a): 1 | Herbicidal Effect mehishiba ([5]; 40 g/10a): 4 | Herbicidal Effect mehishiba ([5]; 80 g/10a): 4 | Herbicidal Effect cockspur ([6]; 40 g/10a): 1 | Herbicidal Effect cockspur ([6]; 80 g/10a): 3 | Herbicidal Effect hotarui ([7]; 3.13 g/10a): 4.5 | Herbicidal Effect hotarui ([7]; 6.25 g/10a): 4.5 | Herbicidal Effect ooinutade ([8]; 4 g/10a): 5 | Herbicidal Effect ooinutade ([8]; 8 g/10a): 5 | Herbicidal Effect noasagao ([9]; 4 g/10a): 4 | Herbicidal Effect noasagao ([9]; 8 g/10a): 4 | Injury of Paddy ([10]; 3.13 g/10a): 0 | Injury of Paddy ([10]; 6.25 g/10a): 0.5 | Herbicidal Effect ichibi ([11]; 4 g/10a): 5 | Herbicidal Effect ichibi ([11]; 8 g/10a): 5 | Herbicidal Effect nobie ([12]; 3.13 g/10a): 5 | Herbicidal Effect nobie ([12]; 6.25 g/10a): 5 | Herbicidal Effect onamomi ([13]; 4 g/10a): 4 | Herbicidal Effect onamomi ([13]; 8 g/10a): 4 | Herbicidal Effect aobiyu ([14]; 40 g/10a): 5 | Herbicidal Effect aobiyu ([14]; 80 g/10a): 5
